In EP0001174A1, “A peptide and the salts thereof, processes for their preparation and compositions containing them” (NYEGAARD & CO. A/S, priority 1977, dated 1979):
Non-standard residues stand in square brackets, D forms with d. Residues, ends and D or L forms follow the SMILES beside them. pGlu = O=C1CC[C@@H](C(=O)O)N1

Experiment: biological activity of the synthetic peptide compared with the biogenic material isolated from urine (test not described; anorexigenic properties stated)
Conditions: no method or figures given

For `O=C(O)CNC(=O)[C@H](Cc1cnc[nH]1)NC(=O)[C@@H]1CCC(=O)N1` [synthetic peptide, L-(pyro)glutamyl-L-histidyl-glycine] ([pGlu]-His-Gly-OH), the biological activity was “comparable biological activity”.
